US20130281544A1, “HEPATOPROTECTANT ACTIVITY OF GARCINOL” (priority 2010, published 2013)
Converted amounts (≈) assume the structure as drawn.

What was measured:
[1] = system: mice; conditions: mouse, in vivo, po
Source text: The parameters studied and observations recorded are included in Table 1. (OECD Guidelines for Testing of Chemicals. Guideline 423, Acute Oral Toxicity—Acute Toxic Class Method, Adopted, (1996). Organization for Economic Cooperation and Development).

[2] = system: carbon tetrachloride induced liver damage in rats; test: Bilirubin and serum enzymes ALT, AST, ALP in carbon tetrachloride induced liver damage; type: in vivo, Male Wistar Rats; conditions: CCl4; for ALP percent change / ALT percent change / AST percent change / Bilirubin percent change / ALP / ALT / AST / Bilirubin: serum; for ALP / ALT / AST / Bilirubin: Mean ± SE
Procedure: Doses of Garcinol (GC) used for the study: 1.25, 2.5, 5, 10 mg/kg p.o.
Standard drug: Silymarin (50 mg/kg) p.o.
Liver injury was induced by administration of carbon tetrachloride (CCl4) mixed with liquid paraffin (5 fold dilution). Animals were given single dose of CCl4 at 1 ml/kg, p.o. followed by the administration of garcinol (Table 2). [(i) Bramanti G, Murmann W, Pierini P and Comporti M (1978). Effect of cicloxilic acid on CCl4-induced liver injury. Drug Research 28: 1112-1217. (ii) B Singh, A K Saxena, B K Chandan, K K Anand (1998). Hepatoprotective activity of Verbenalin on experimental liver damage in rodents. Fitoterapia LXIX 2: 135-140. (iii) B. K. Chandan, A. K. Sharma, K. K. Anand Boerhaavia difiusa: A study of its hepatoprotective activity. Journal of Ethnopharmacology, Volume 31, Issue 3, March 1991, Pages 299-307].
Blood was collected from the retro-orbital plexus of experimental animals and no anti-coagulant was added. Blood was made to stand at room temperature for 1 hour. It was then centrifuged and clear serum was separated. The serum was then stored for analysis. Reference: (Magari et al., 2004).
(ASPARTATE AMINOTRANSFERASE and ALANINE AMINOTRANSFERASE), Reference: Ritman S, Frankel S, (1957). A colorimeteric method for the determination of serum glutamic oxaloacetic and glutamic pyruvic transaminases. American Journal of Clinical Pathology; 28: 56-63.
0.2 ml of serum, collected from test and control samples, was mixed with 1.0 ml of buffer solution and incubated for 60 min at 37° C. in a water bath. After the addition of 1.0 ml of chromogen solution, the samples were kept at room temperature for 20 minutes for the reaction to proceed and 10 ml NaOH was added. The optical density was red at 546 nm after 5 min. To the blank, serum was added after the addition of chromogen solution.
(ALKALINE PHOSPHATASE), Reference: Klaus Walter and Schutt C. (1974). Acid and alkaline phosphatase in serum. In: Methods of Enzymatic Analysis. Eds. Hans Ulrich Bergmeyer, Verlag ChemieWeinheim, Academic press, Inc. New York, 2nd Edition, Vol. 2, pp. 855-64.
Alkaline phosphatase activity measurement is based on the ability of the enzyme to hydrolyze p-nitrophenol phosphate under alkaline conditions. The cleaved product p-nitrophenol is yellow in alkaline solution and is measured at 400-420 nm (Klaus and Schutt, 1974). 2.0 ml of buffered substrate was taken in the tubes ‘Test’ ‘Control’ and ‘Blank’ followed by addition of serum and distilled water (0.1 ml) in ‘Test’ and ‘Blank’ respectively and incubated in a water bath for 30 minutes at 25° C. After incubation sodium hydroxide was added (0.25 N, 2 ml) to all the tubes, which was followed by serum (0.1 ml) to the tubes marked ‘Control’. The yellow colour formed was measured spectrophotometrically against blank at 410 nm.
[BILIRUBIN (BRBN)], Reference: Malloy H T and Evelyn K A (1937). The determination of bilirubin with photoelectric colorimeter. Journal of Biological Chemistry 119: 481-490.
Serum bilirubin was estimated by the method of Malloy and Evelyn (1937). In the two sets of test tubes marked ‘Test’ and ‘Control’, serum (0.2 ml) and distilled water (1.8 ml) were added. To the tubes marked ‘Test’ and ‘Standard’ diazo reagent (0.5 ml) was added. To the test tubes marked ‘Control’ and ‘Blank’ diazo blank (0.5 ml) was added. Finally methanol (2.5 ml) was added into each test tube. The tubes were mixed and allowed to stand for 30 minutes in dark. The tubes were read after 10 minutes at 540 nm.

[3] = in vitro; type: cell-based; conditions: human
[4] = system: Hep G2 liver cancer cell line; test: in vitro; type: cell-based

C=C(C)[C@@H](CC=C(C)C)C[C@@]12C[C@@H](CC=C(C)C)C(C)(C)[C@@](CC=C(C)C)(C(=O)C(C(=O)c3ccc(O)c(O)c3)=C1O)C2=O [Garcinol]
Aggressiveness [1]: Aggressiveness: Nil
Atexia [1]: Atexia: Nil
Blanching [1]: Blanching: Nil
Clonic convulsions [1]: Clonic convulsions: Nil
Corneal [1]: Corneal: No Effect
Cyanosis [1]: Cyanosis: Nil
Diarrhea [1]: Diarrhea: Nil
Excitation [1]: Excitation: Nil
Fearful [1]: Fearful: Nil
Fecal Output [1]: Fecal Output: Normal
General Locomotor Activity [1]: General Locomotor Activity: Normal
General Movement [1]: General Movement: Normal
Hyperemia [1]: Hyperemia: Nil
Motor Activity [1]: Motor Activity: Normal
Muscular Weakness [1]: Muscular Weakness: Nil
Passive [1]: Passive: Nil
Pilo erection [1]: Pilo erection: Nil
Pinnal [1]: Pinnal: No Effect
Respiration Depth [1]: Respiration Depth: Normal
Respiration Rate [1]: Respiration Rate: Normal
Respiration rate [1]: Respiration rate: Normal
Salivation [1]: Salivation: Normal
Tremors [1]: Tremors: Nil
Urine Output [1]: Urine Output: Normal
Average Protection ([2]; 1.25 mg/kg p.o.): 12.63%
Average Protection ([2]; 2.50 mg/kg p.o.): 24.99%
Average Protection ([2]; 5.00 mg/kg p.o.): 38.07%
Average Protection ([2]; 10.00 mg/kg p.o.): 36.87%
ALP percent change ([2]; 1.25 mg/kg p.o.): (10.79) %
ALT percent change ([2]; 1.25 mg/kg p.o.): (12.84) %
AST percent change ([2]; 1.25 mg/kg p.o.): (14.95) %
Bilirubin percent change ([2]; 1.25 mg/kg p.o.): (11.96) %
ALP ([2]; 1.25 mg/kg p.o.): 78.49 ± 6.58 μmol/min/lt
ALT ([2]; 1.25 mg/kg p.o.): 1272.50 ± 109.19 μmol/min/lt
AST ([2]; 1.25 mg/kg p.o.): 746.81 ± 36.93 μmol/min/lt
Bilirubin ([2]; 1.25 mg/kg p.o.): 1.03 ± 0.04 mg %
ALP percent change ([2]; 2.50 mg/kg p.o.): (20.08) %
ALT percent change ([2]; 2.50 mg/kg p.o.): (29.65) %
AST percent change ([2]; 2.50 mg/kg p.o.): (26.32) %
Bilirubin percent change ([2]; 2.50 mg/kg p.o.): (23.93) %
ALP ([2]; 2.50 mg/kg p.o.): 70.32 ± 3.89 μmol/min/lt
ALT ([2]; 2.50 mg/kg p.o.): 1027.07 ± 68.26 μmol/min/lt
AST ([2]; 2.50 mg/kg p.o.): 646.90 ± 50.53 μmol/min/lt
Bilirubin ([2]; 2.50 mg/kg p.o.): 0.89 ± 0.05 mg %
ALP percent change ([2]; 5.00 mg/kg p.o.): (32.73) %
ALT percent change ([2]; 5.00 mg/kg p.o.): (43.24) %
AST percent change ([2]; 5.00 mg/kg p.o.): (42.98) %
Bilirubin percent change ([2]; 5.00 mg/kg p.o.): (33.33) %
ALP ([2]; 5.00 mg/kg p.o.): 59.19 ± 4.45 μmol/min/lt
ALT ([2]; 5.00 mg/kg p.o.): 828.59 ± 46.56 μmol/min/lt
AST ([2]; 5.00 mg/kg p.o.): 500.66 ± 49.22 μmol/min/lt
Bilirubin ([2]; 5.00 mg/kg p.o.): 0.78 ± 0.04 mg %
ALP percent change ([2]; 10.00 mg/kg p.o.): (32.15) %
ALT percent change ([2]; 10.00 mg/kg p.o.): (38.94) %
AST percent change ([2]; 10.00 mg/kg p.o.): (40.50) %
Bilirubin percent change ([2]; 10.00 mg/kg p.o.): (35.89) %
ALP ([2]; 10.00 mg/kg p.o.): 59.70 ± 3.69 μmol/min/lt
ALT ([2]; 10.00 mg/kg p.o.): 891.36 ± 45.72 μmol/min/lt
AST ([2]; 10.00 mg/kg p.o.): 522.43 ± 57.50 μmol/min/lt
Bilirubin ([2]; 10.00 mg/kg p.o.): 0.75 ± 0.04 mg %
cytotoxicity at 0.78 μg/ml [3]: -3.81%
cytotoxicity at 1.56 μg/ml [3]: -12.1%
cytotoxicity at 3.13 μg/ml [3]: -14.7%
cytotoxicity at 6.25 μg/ml [3]: -1.94%
cytotoxicity at 12.5 μg/ml [3]: 35.8%
cytotoxicity at 25 μg/ml [3]: 60.9%
cytotoxicity at 50 μg/ml [3]: 83.2%
cytotoxicity at 100 μg/ml [3]: 83.4%
cytotoxicity at 200 μg/ml [3]: 79.5%
effective concentration for mammalian hepatocyte protection [4]: 0.78 to 6.25 µg/mL
IC50 ([4]; Homo sapiens, HepG2, HEP G2 cells, MTT, read-out: Hepatoprotective activity in HEP G2 cells IC50): 13.3 µg/mL (≈ 22.1 µM)
